Earlier results in patent US12247053B2 (priority 2018, dated 2025).

tested on: 2009 swine flu influenza A(H1N1)

SMILES	susceptibility of the virus
CCOC(=O)C1=C[C@@H](OC(CC)CC)[C@H](NC(C)=O)[C@@H](N)C1 [oseltamivir]	susceptible
CC(=O)N[C@H]1[C@H]([C@H](O)[C@H](O)CO)OC(C(=O)O)=C[C@@H]1N=C(N)N [zanamivir]	susceptible
NC12CC3CC(CC(C3)C1)C2 [amantadine]	resistant
CC(N)C12CC3CC(CC(C3)C1)C2 (stereo not shown) [rimantadine]	resistant
